Results reported in paper PMC10359276, “Involvement of skin TRPV3 in temperature detection regulated by TMEM79 in mice” (Nature Communications, 2023).

Target: TRPV3 (mTRPV3) (Mus musculus, UniProt Q8K424)
Test: cell-based

TRPV3 (mTRPV3), sequence (Q8K424 whole entry): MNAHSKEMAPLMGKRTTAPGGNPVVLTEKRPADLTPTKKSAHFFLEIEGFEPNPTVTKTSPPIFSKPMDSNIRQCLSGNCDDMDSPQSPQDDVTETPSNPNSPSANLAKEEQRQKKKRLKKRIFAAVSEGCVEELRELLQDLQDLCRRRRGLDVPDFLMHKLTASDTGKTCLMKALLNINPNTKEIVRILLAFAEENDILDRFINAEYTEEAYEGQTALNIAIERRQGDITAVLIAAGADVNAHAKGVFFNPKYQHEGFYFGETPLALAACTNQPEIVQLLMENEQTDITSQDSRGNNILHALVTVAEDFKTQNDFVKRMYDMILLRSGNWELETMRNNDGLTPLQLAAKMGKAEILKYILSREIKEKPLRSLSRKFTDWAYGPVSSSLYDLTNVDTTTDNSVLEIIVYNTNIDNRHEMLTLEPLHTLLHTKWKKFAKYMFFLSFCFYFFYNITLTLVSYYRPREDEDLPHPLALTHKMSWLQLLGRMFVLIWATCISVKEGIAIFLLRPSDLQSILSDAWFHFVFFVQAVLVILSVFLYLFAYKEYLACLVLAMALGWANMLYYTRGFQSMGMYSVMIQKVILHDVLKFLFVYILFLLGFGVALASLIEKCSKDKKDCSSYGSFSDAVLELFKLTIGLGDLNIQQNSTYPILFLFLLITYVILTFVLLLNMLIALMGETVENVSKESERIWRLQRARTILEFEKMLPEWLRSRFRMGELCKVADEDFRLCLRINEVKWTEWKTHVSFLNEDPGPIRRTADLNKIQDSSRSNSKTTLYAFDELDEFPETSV

## NCCOB(c1ccccc1)c1ccccc1 [2-APB]
  EC50: 57.4 ± 3.2 µM
